Measured values as given in US11591341B2 (ALIGOS THERAPEUTICS, INC., priority 2019, dated 2023).

Tested on: HBV
Test: HBV-DNA Antiviral Assay Using HepG2.117 Cells (intracellular HBV DNA by qPCR)
Assay type: cell-based, hepatitis B virus (genotype D)
Settings: Hepatitis B virus, HepG2.117
Outline: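 HepG2.117 cells (genotype D HBV, Tet-off) were induced by doxycycline withdrawal and treated for 3 days with 9 concentrations in 4-fold dilution, 2% DMSO final. Intracellular HBV DNA was measured by qPCR against a standard curve, with ATPlite viability read in parallel. EC50, EC90 and CC50 came from fits against the DMSO control.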

Row | SMILES | EC50 [nM]
1 | COc1ccc(-n2c(C(=O)NC(C(N)=O)c3ccccc3)c3n(c2=O)CCN(C(=O)c2ccc(Br)c(Cl)c2)C3)cc1 (racemic) [Example 206, 7-(4-bromo-3-chloro-benzoyl)-2-(4-methoxyphenyl)-3-oxo-N-[rac-(1R)-2-amino-2-oxo-1-phenyl-ethyl]-6,8-dihydro-5H-imidazo[1,5-a]pyrazine-1-carboxamide] | > 5000
2 | C[C@H](NC(=O)c1c2n(c(=O)n1-c1ccc(OC3CC3)cc1)CCN(C(=O)c1ccc(Br)c(Cl)c1)C2)c1ccc(OCC(N)=O)cc1F (stereo in doubt) [Example 315, 7-(4-bromo-3-chloro-benzoyl)-2-[4-(cyclopropoxy)phenyl]-3-oxo-N-[rac-(1R)-1-[4-(2-amino-2-oxo-ethoxy)-2-fluoro-phenyl]ethyl]-6,8-dihydro-5H-imidazo[1,5-a]pyrazine-1-carboxamide] | 500 to 5000
3 | COc1ccc(CNC(=O)c2c3n(c(=O)n2-c2ccc(C#N)cc2)CCN(C(=O)c2ccc(Br)c(Cl)c2)C3)c(F)c1 [Example 164, 7-(4-bromo-3-chloro-benzoyl)-2-(4-cyanophenyl)-N-[(2-fluoro-4-methoxy-phenyl)methyl]-3-oxo-6,8-dihydro-5H-imidazo[1,5-a]pyrazine-1-carboxamide] | 500 to 5000
4 | COc1ccc(C(C)NC(=O)c2c3n(c(=O)n2-c2ccc(OC4CC4)cc2)CCN(C(=O)c2ccc(Br)c(Cl)c2)C3)c(F)c1 (racemic) [Example 420, 7-(4-bromo-3-chloro-benzoyl)-2-[4-(cyclopropoxy)phenyl]-3-oxo-N-[rac-(1R)-1-(2-fluoro-4-methoxy-phenyl)ethyl]-6,8-dihydro-5H-imidazo[1,5-a]pyrazine-1-carboxamide] | < 100
5 | N#CCOc1ccc(CNC(=O)c2c3n(c(=O)n2-c2ccc(OCC(F)(F)F)cc2)CCN(C(=O)c2ccc(Br)c(Cl)c2)C3)c(F)c1 [Example 326, 7-(4-bromo-3-chloro-benzoyl)-N-[[4-(cyanomethoxy)-2-fluoro-phenyl]methyl]-3-oxo-2-[4-(2,2,2-trifluoroethoxy)phenyl]-6,8-dihydro-5H-imidazo[1,5-a]pyrazine-1-carboxamide] | 100 to 500
6 | COc1ccc(CNC(=O)c2c3n(c(=O)n2-c2ccc(OCC(F)(F)F)cc2)CCN(C(=O)c2ccc(Br)c(Cl)c2)C3)c(C)c1 [Example 246, 7-(4-bromo-3-chloro-benzoyl)-N-[(4-methoxy-2-methyl-phenyl)methyl]-3-oxo-2-[4-(2,2,2-trifluoroethoxy)phenyl]-6,8-dihydro-5H-imidazo[1,5-a]pyrazine-1-carboxamide] | 100 to 500
7 | COc1ccc(-n2c(C(=O)NCc3ccccc3)c3n(c2=O)CCN(C(=O)c2ccc(Cl)c(Cl)c2)C3)cc1 [Example 54, N-benzyl-7-(3,4-dichlorobenzoyl)-2-(4-methoxyphenyl)-3-oxo-6,8-dihydro-5H-imidazo[1,5-a]pyrazine-1-carboxamide] | 500 to 5000
8 | CC(C)Oc1ccc(-n2c(C(=O)NCc3ccc(C#N)cc3F)c3n(c2=O)CCN(C(=O)c2ccc(Br)c(Cl)c2)C3)cc1 [Example 212, 7-(4-bromo-3-chloro-benzoyl)-N-[(4-cyano-2-fluoro-phenyl)methyl]-2-(4-isopropoxyphenyl)-3-oxo-6,8-dihydro-5H-imidazo[1,5-a]pyrazine-1-carboxamide] | 100 to 500
9 | COc1ccc(-n2c(C(=O)NCC3CC3)c3n(c2=O)CCN(C(=O)c2ccc(Cl)c(Cl)c2)C3)cc1 [Example 105, N-(cyclopropylmethyl)-7-(3,4-dichlorobenzoyl)-2-(4-methoxyphenyl)-3-oxo-6,8-dihydro-5H-imidazo[1,5-a]pyrazine-1-carboxamide] | > 5000
10 | COc1ccc(-n2c(C(=O)NCc3ccccc3)c3n(c2=O)CCN(C(=O)c2cc4c(C)cccc4[nH]2)C3)cc1 [Example 55, N-benzyl-2-(4-methoxyphenyl)-7-(4-methyl-1H-indole-2-carbonyl)-3-oxo-6,8-dihydro-5H-imidazo[1,5-a]pyrazine-1-carboxamide] | 500 to 5000
11 | O=C1COc2ccc(CNC(=O)c3c4n(c(=O)n3-c3ccc(OC5CC5)cc3)CCN(C(=O)c3ccc(Br)c(Cl)c3)C4)cc2N1 [Example 431, 7-(4-bromo-3-chloro-benzoyl)-2-[4-(cyclopropoxy)phenyl]-3-oxo-N-[(3-oxo-4H-1,4-benzoxazin-6-yl)methyl]-6,8-dihydro-5H-imidazo[1,5-a]pyrazine-1-carboxamide] | 500 to 5000
12 | CC(C)(NC(=O)c1c2n(c(=O)n1-c1ccccc1)CCN(C(=O)c1ccc(Br)c(Cl)c1)C2)c1ccccc1 [Example 30, 7-(4-bromo-3-chloro-benzoyl)-N-(1-methyl-1-phenyl-ethyl)-3-oxo-2-phenyl-6,8-dihydro-5H-imidazo[1,5-a]pyrazine-1-carboxamide] | > 5000
13 | N#Cc1ccc(-n2c(C(=O)NCc3ccccc3)c3n(c2=O)CCN(C(=O)c2ccc(Br)c(Cl)c2)C3)c(Cl)c1 [Example 351, N-benzyl-7-(4-bromo-3-chloro-benzoyl)-2-(2-chloro-4-cyano-phenyl)-3-oxo-6,8-dihydro-5H-imidazo[1,5-a]pyrazine-1-carboxamide] | > 5000
14 | C[C@@H](NC(=O)c1c2n(c(=O)n1-c1ccc(OC3CC3)cc1)CCN(C(=O)c1ccc(Br)c(Cl)c1)C2)c1cccc2nccnc12 (racemic) [Example 383, 7-(4-bromo-3-chloro-benzoyl)-2-[4-(cyclopropoxy)phenyl]-3-oxo-N-[rac-(1R)-1-quinoxalin-5-ylethyl]-6,8-dihydro-5H-imidazo[1,5-a]pyrazine-1-carboxamide] | 100 to 500
15 | COc1ccc(CN2Cc3c4n(c(=O)n3C[C@@H](O)C2)CCN(C(=O)c2ccc(Br)c(Cl)c2)C4)c(F)c1 (stereo in doubt) [Example 289, rac-(11S)-4-(4-bromo-3-chloro-benzoyl)-13-[(2-fluoro-4-methoxy-phenyl)methyl]-11-hydroxy-4,7,9,13-tetrazatricyclo[7,5.0.0^2,7]tetradec-1-ene-8,14-dione] | 100 to 500
16 | C[C@H]1Cn2c(c(C(=O)NCc3ccccc3-n3cncn3)n(-c3ccc(OC4CC4)cc3)c2=O)CN1C(=O)c1ccc(Br)c(Cl)c1 (stereo in doubt) [Example 448, rac-(6S)-7-(4-bromo-3-chloro-benzoyl)-2-[4-(cyclopropoxy)phenyl]-6-methyl-3-oxo-N-[[2-(1,2,4-triazol-1-yl)phenyl]methyl]-6,8-dihydro-5H-imidazo[1,5-a]pyrazine-1-carboxamide] | < 100
17 | O=C(NCc1ccccc1)c1c2n(c(=O)n1-c1ccc(N3CCCC3=O)cc1)CCN(C(=O)c1ccc(Br)c(Cl)c1)C2 [Example 412, N-benzyl-7-(4-bromo-3-chloro-benzoyl)-3-oxo-2-[4-(2-oxopyrrolidin-1-yl)phenyl]-6,8-dihydro-5H-imidazo[1,5-a]pyrazine-1-carboxamide] | 100 to 500
18 | C[C@H]1Cn2c(c(C(=O)NCc3ccccc3-n3cccn3)n(-c3ccc(OC4CC4)cc3)c2=O)CN1C(=O)c1ccc(Br)c(Cl)c1 (stereo in doubt) [Example 438, rac-(6S)-7-(4-bromo-3-chloro-benzoyl)-2-[4-(cyclopropoxy)phenyl]-6-methyl-3-oxo-N-[(2-pyrazol-1-ylphenyl)methyl]-6,8-dihydro-5H-imidazo[1,5-a]pyrazine-1-carboxamide] | < 100
